Reference: patent publication US6518480B1 (priority 1996, dated 2003)

Assays:
OR2 [1] = assay type: cell-based, human
OR2 [2] = target: OR2 (Homo sapiens, UniProt P41145, G198V/DELINS201-226[…]/E297Q, form not given); assay type: cell-based; conditions: read-out: EC50, signaling by OR2; signaling by OR2
OR2 [3] = assay type: binding, human
OR1 [4] = target: OR1 (Homo sapiens, UniProt P41145, G198V/DELINS201-226[…], form not given); assay: Signaling (activation of G protein-mediated signals, adenylyl cyclase inhibition) by OR1; assay type: cell-based
Sequence of OR1 (Homo sapiens, UniProt P41145, G198V/DELINS201-226[…], form not given) (P41145 with tags, fused parts or gaps DELINS198-226[withheld], form open): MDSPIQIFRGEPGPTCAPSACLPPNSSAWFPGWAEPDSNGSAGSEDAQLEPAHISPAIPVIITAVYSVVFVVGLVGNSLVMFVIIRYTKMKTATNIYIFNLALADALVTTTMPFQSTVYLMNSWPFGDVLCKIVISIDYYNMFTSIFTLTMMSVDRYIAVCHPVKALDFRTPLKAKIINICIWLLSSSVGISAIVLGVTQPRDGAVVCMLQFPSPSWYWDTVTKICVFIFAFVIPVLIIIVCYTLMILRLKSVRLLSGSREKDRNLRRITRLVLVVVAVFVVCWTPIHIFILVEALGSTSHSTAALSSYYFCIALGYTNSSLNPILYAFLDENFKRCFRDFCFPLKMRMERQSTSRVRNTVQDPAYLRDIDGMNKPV

OR1 [5] = assay: as above; assay type: cell-based, human; conditions: relative to signal detected with wild-type KOR
Wild-type KOR [6] = target: T1, Wild-type KOR (Homo sapiens, UniProt P41145); assay: Signaling (activation of G protein-mediated signals, adenylyl cyclase inhibition) by wild-type KOR; assay type: cell-based
T1 construct: expressed in transfected cells; host or cells: COS-7 and CHO-KI (for OR1 and OR2)
T1 sequence (P41145 whole entry): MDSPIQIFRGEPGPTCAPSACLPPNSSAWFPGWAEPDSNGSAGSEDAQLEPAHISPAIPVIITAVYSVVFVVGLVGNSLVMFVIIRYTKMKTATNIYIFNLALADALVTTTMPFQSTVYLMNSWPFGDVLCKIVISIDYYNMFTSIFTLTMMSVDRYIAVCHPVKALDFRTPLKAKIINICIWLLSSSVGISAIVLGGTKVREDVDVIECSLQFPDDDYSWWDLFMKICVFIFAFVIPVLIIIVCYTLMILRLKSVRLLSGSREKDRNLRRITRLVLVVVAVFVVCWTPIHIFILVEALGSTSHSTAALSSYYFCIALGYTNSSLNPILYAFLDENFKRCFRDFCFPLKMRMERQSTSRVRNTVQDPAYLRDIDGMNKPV

OR1 [7] = assay type: binding, human
Wild-type KOR [8] = target: T1, Wild-type KOR; assay: biochemical; assay type: binding
[9] = relative to signal detected with wild-type KOR

Sequence of OR2 (Homo sapiens, UniProt P41145, G198V/DELINS201-226[…]/E297Q, form not given) (P41145 with tags, fused parts or gaps DELINS198-226[withheld]/E297Q, form open): as the sequence (P41145 with tags, fused parts or gaps DELINS198-226[withheld], form open) above, with E294Q counted along it

`CCC12CCN(CC3(O)CC3)C(Cc3ccc(O)cc31)C2(C)C` (stereo not drawn) [Bremazocine, bremazocine] was tested, and the “Fold decrease in signaling, OR2” value (OR2 [1]; [9]) was 5.17 fold, the “Biochemical Signal, decrease (summary), OR2” value (OR2 [1]; summary table, ↓ = decrease versus wild-type KOR) was “↓5x” and the “Amount of ligand required to activate the biochemical signal at OR2 compared to wild-type KOR” value (OR2 [1]; times more ligand than for wild type KOR) was “about 5 times”. The EC50 (OR2 [2]) was 0.34 nM, the “Change in binding affinity of OR2 relative to native human KOR” value (OR2 [3]) was “no change” and the “Fold decrease in binding, OR2” value (OR2 [3]) was 1.2 fold. For the same compound, the “Inhibition of adenylyl cyclase by OR1 in response to ligand” value (OR1 [4]; dynorphin only at high concentrations) was “inhibits adenylyl cyclase”, the EC50 (OR1 [4]; read-out: EC50, signaling by OR1, signaling by OR1) was 0.068 nM and the “Fold decrease in signaling, OR1” value (OR1 [5]) was 1 fold. The EC50 (Wild-type KOR [6]) was 0.067 nM, the “Fold decrease in signaling, Wild-type KOR” value (Wild-type KOR [6]; [9]) was 1 fold and the “Change in binding affinity of OR1 relative to native human KOR” value (OR1 [7]) was “no significant change”. For the same compound, the “Fold decrease in binding, OR1” value (OR1 [7]) was 1.7 fold, the “Fold decrease in binding, Wild-type KOR” value (Wild-type KOR [8]) was 1 fold and the Ki (Wild-type KOR [8]) was 0.038 nM.
